Laboratory results: patent US6864217B2, “Herbicidal compositions with substituted phenylsulfonylureas for controlling weeds in rice” (Hoechst Schering AgrEvo GmbH, priority 1998, dated 2005)
Structures can show the parent of a compound that is named as a salt.

How the values were obtained:
Cucumis dipsaceus = assay: Table 1: weed control by A1*), safener C3-1) and combination; type: in vivo
Procedure: (§5) The examples mentioned below were carried out in the greenhouse, and in some instances, in field trials.

Eleusine indica = assay: Table 2 field trial, treatment at the 2-3 leaf stage weed grasses: weed control; type: in vivo; conditions: 28 days after application
Procedure: as §5

Echinochloa crusgalli [1] = assay: Table 5 field trial, treatment at the 2-4 leaf stage rice: weed control; type: in vivo; conditions: evaluation after 28 days
Procedure: as §5

Echinochloa crusgalli [2] = assay: Table 8 greenhouse trial, treatment at the 1-2 leaf stage: weed control; type: in vivo; conditions: 22 days after application
Text: Seeds or rhizome pieces of mono- and dicotyledonous weed plants are placed into sandy loam soil in plastic pots, covered with soil and grown in a greenhouse under good growth conditions (temperature, atmospheric humidity, water supply). Weeds which are encountered in the cultivation of rice are cultivated in pots in which the water level is up to 2 cm over the soil surface. […] The active compound combinations according to the invention, formulated as wettable powders or emulsion concentrates, and, in parallel experiments, the correspondingly formulated individual active compounds are sprayed onto the green parts of the plants at different dosages using an amount of water of 300 to 600 l/ha (converted), and, after about 3 to 4 weeks of the test plants in the greenhouse under optimum growth conditions (temperature, atmospheric humidity, water supply), the effect of the preparations is evaluated visually in comparison to untreated controls. In the case of rice or weeds which are encountered in the cultivation of rice, the active compounds are also added directly to the water for irrigation (application analogous to the so-called granules application) or sprayed onto plants and added to the water for irrigation. The experiments were designed with several, up to five, repetitions. The herbicidal compositions according to the invention also have good herbicidal post-emergence activity against a broad spectrum of economically important weed grasses and broad-leaved weeds.

Oryza sativa [3] = assay: Table 9 greenhouse trial, treatment at the 1-2 leaf stage: rice damage; type: in vivo; conditions: 22 days after application
Procedure: (§1) Seeds or rhizome pieces of mono- and dicotyledonous weed plants are placed into sandy loam soil in plastic pots, covered with soil and grown in a greenhouse under good growth conditions (temperature, atmospheric humidity, water supply). Weeds which are encountered in the cultivation of rice are cultivated in pots in which the water level is up to 2 cm over the soil surface. Three weeks after sowing, the test plants are treated at the three-leaf stage. The active compound combinations according to the invention, formulated as wettable powders or emulsion concentrates, and, in parallel experiments, the correspondingly formulated individual active compounds are sprayed onto the green parts of the plants at different dosages using an amount of water of 300 to 600 l/ha (converted), and, after about 3 to 4 weeks of the test plants in the greenhouse under optimum growth conditions (temperature, atmospheric humidity, water supply), the effect of the preparations is evaluated visually in comparison to untreated controls. In the case of rice or weeds which are encountered in the cultivation of rice, the active compounds are also added directly to the water for irrigation (application analogous to the so-called granules application) or sprayed onto plants and added to the water for irrigation. The experiments were designed with several, up to five, repetitions. The herbicidal compositions according to the invention also have good herbicidal post-emergence activity against a broad spectrum of economically important weed grasses and broad-leaved weeds.
Greenhouse trial: Treatment at the 1-2 leaf stage, evaluation 22 days after the application.

Scirpus juncoides = assay: Table 10 greenhouse trial, treatment at the 1-2 leaf stage: weed control; type: in vivo; conditions: 20 days after application
Procedure: as §1
Greenhouse trial: Treatment at the 1-2 leaf stage, evaluation 20 days after the application.

Oryza sativa [4] = assay: Table 13 greenhouse trial, treatment at the 5-6 leaf stage: rice damage; type: in vivo; conditions: 20 days after application
Procedure: as §1
Greenhouse trial: Treatment at the 5-6 leaf stage, evaluation 20 days after the application.

Oryza sativa [5] = assay: Table 15 greenhouse trial, treatment at the 2-3 leaf stage: rice damage; type: in vivo; conditions: 20 days after application
Procedure: as §1

Oryza sativa [6] = assay: Table 16 greenhouse trial, treatment at the 2-3 leaf stage: rice damage; type: in vivo; conditions: 20 days after application
Procedure: as §1
Greenhouse trail: Treatment at the 2-3 leaf stage, evaluation 20 days after the application.

Echinochloa crusgalli [7] = assay: Table 17 field trial, treatment at the 2 leaf stage: weed control; type: in vivo; conditions: 14 days after application
Text: (§2) Field trial: Treatment at the 2 leaf stage, evaluation 14 days after the application.

Cyperus serotinus = assay: Table 19 field trial, treatment at the 2 leaf stage: weed control; type: in vivo; conditions: 14 days after application
Text: as §2

Oryza sativa [8] = assay: Table 20 field trial, treatment at the 4-6 leaf stage: rice damage; type: in vivo; conditions: 2.5 g of ai/ha, 28 days after application
Text: Field trial: Treatment at the 4-6 leaf stage, evaluation 28 days after the application.

Cyperus iria [9] = assay: Table 23 field trial, treatment: 4-6 leaf stage: weed control; type: in vivo; conditions: 36 days after application
Text: Field trial: Treatment: 4-6 leaf stage, evaluation 36 days after the application.

Cyperus iria [10] = assay: Table 24 field trial, treatment by the pre-emergence method: weed control; type: in vivo; conditions: 53 days after application
Text: (§3) Field trial: Treatment by the pre-emergence method, evaluation 53 days after the application.

Oryza sativa [11] = assay: Table 24 field trial, treatment by the pre-emergence method: rice damage; type: in vivo; conditions: field trial, pre-emergence method, 53 days after application
Text: as §3

Polygonum convolvulus = assay: Table 25 field trial, treatment at the 3 leaf stage: weed control; type: in vivo; conditions: 33 days after application
Text: (§4) Field trial: Treatment at the 3 leaf stage, evaluation 33 days after the application.

Oryza sativa [12] = assay: Table 25 field trial, treatment at the 3 leaf stage: rice damage; type: in vivo; conditions: 33 days after application
Text: as §4

Commelina benghalensis = assay: Table 26 field trial, treatment at the 3 leaf stage: weed control; type: in vivo; conditions: 33 days after application
Text: as §4

Oryza sativa [13] = assay: Table 3 field trial, treatment at the 4-5 leaf stage (seed rice): rice damage; conditions: 28 days after application
Procedure: as §5

Structure (SMILES): COC(=O)c1ccc(I)cc1S(=O)(=O)NC(=O)Nc1nc(C)nc(OC)n1 [A1*), Sodium salt of methyl 4-iodo-2-[3-(4-methoxy-6-methyl-1,3,5-triazin-2-yl)ureidosulfonyl]benzoate]
- CUMDI % control (Cucumis dipsaceus; 1.25 g of ai/ha): 60%
- CUMDI % control (Cucumis dipsaceus; 2.5 g of ai/ha): 80%
- ELEIN % control (Eleusine indica; 1.25 g of ai/ha): 0%
- ELEIN % control (Eleusine indica; 2.5 g of ai/ha): 0%
- ELEIN % control (Eleusine indica; 5 g of ai/ha): 0%
- ECHCG % control (Echinochloa crusgalli [1]; 1.25 g of ai/ha): 0%
- ECHCG % control (Echinochloa crusgalli [1]; 2.5 g of ai/ha): 0%
- ECHCG % control (Echinochloa crusgalli [1]; 5 g of ai/ha): 0%
- ECHCG % control (Echinochloa crusgalli [2]; 1.5 g of ai/ha): 40%
- ECHCG % control (Echinochloa crusgalli [2]; 3 g of ai/ha): 60%
- ORYSW % damage (Oryza sativa [3]; 1.5 g of ai/ha): 10%
- ORYSW % damage (Oryza sativa [3]; 3 g of ai/ha): 10%
- SCIJU % control (Scirpus juncoides; 1.5 g of ai/ha): 40%
- SCIJU % control (Scirpus juncoides; 3 g of ai/ha): 40%
- ORYSW % damage (Oryza sativa [4]; 1.5 g of ai/ha): 10%
- ORYSW % damage (Oryza sativa [4]; 3 g of ai/ha): 10%
- ORYSW % damage (Oryza sativa [5]; 1.25 g of ai/ha): 5%
- ORYSW % damage (Oryza sativa [5]; 2.5 g of ai/ha): 10%
- ORYSW % damage (Oryza sativa [5]; 5 g of ai/ha): 10%
- ORYSW % damage (Oryza sativa [6]; 1.25 g of ai/ha): 5%
- ORYSW % damage (Oryza sativa [6]; 2.5 g of ai/ha): 10%
- ORYSW % damage (Oryza sativa [6]; 5 g of ai/ha): 10%
- ECHCG % control (Echinochloa crusgalli [7]; 1 g of ai/ha): 5%
- ECHCG % control (Echinochloa crusgalli [7]; 2 g of ai/ha): 25%
- ECHCG % control (Echinochloa crusgalli [7]; 4 g of ai/ha): 45%
- CYPSE % control (Cyperus serotinus; 1.5 g of ai/ha): 10%
- CYPSE % control (Cyperus serotinus; 3 g of ai/ha): 30%
- ORYSW % damage (Oryza sativa [8]): 8%
- CYPIR % control (Cyperus iria [9]; 0.62 g of ai/ha): 53%
- CYPIR % control (Cyperus iria [9]; 1.25 g of ai/ha): 85%
- CYPIR % control (Cyperus iria [9]; 2.5 g of ai/ha): 98%
- CYPIR % control (Cyperus iria [10]; 2.5 g of ai/ha): 17%
- CYPIR % control (Cyperus iria [10]; 5 g of ai/ha): 27%
- ORYSW % damage (Oryza sativa [11]; 2.5 g of ai/ha): 0%
- ORYSW % damage (Oryza sativa [11]; 5 g of ai/ha): 0%
- POLCO % control (Polygonum convolvulus; 1.25 g of ai/ha): 35%
- POLCO % control (Polygonum convolvulus; 2.5 g of ai/ha): 80%
- ORYSW % damage (Oryza sativa [12]; 1.25 g of ai/ha): 6%
- ORYSW % damage (Oryza sativa [12]; 2.5 g of ai/ha): 12%
- COMBE % control (Commelina benghalensis; 2.5 g of ai/ha): 47%
- COMBE % control (Commelina benghalensis; 5 g of ai/ha): 67%
- ORYSW % damage (Oryza sativa [13]; 0.75 g of ai/ha): 0%
- ORYSW % damage (Oryza sativa [13]; 1.5 g of ai/ha): 0%
- ORYSW % damage (Oryza sativa [13]; 2.5 g of ai/ha): 0%
